Experimental data as given in patent publication US10208056B2, “Condensed tricyclic compounds as protein kinase inhibitors” (FUNDACIÓN DEL SECTOR PÚBLICO ESTATAL CENTRO NACIONAL DE …, priority 2015, dated 2019).

Assays:
[1] = system: SW620 cells; test: Colony formation assay; assay type: cell-based, human; details: SW620 cells treated 11 days
Procedure: The in vitro potency of the compounds was measured by colony formation assays. SW620 cells in logarithmic growth phase are plated at 800 cells per well in 6-well plates (Solmeglas 13118) in RPMI media (Sigma-Aldrich R6504) supplemented with 10% foetal bovine serum (Sigma-Aldrich F7524), Penicillin/Streptomycin solution diluted 1:100 (Gibco 15070-063), and fungizone (Gibco, 15290-018), and allowed to adhere overnight at 37° C. in 5% CO2. Compounds are then added to the cell media from a final concentration of 10 μM in 10-fold serial dilutions and the cells are incubated at 37° C. in 5% CO2. Every three days the medium is changed by fresh medium and compounds are added again. After 11 days, colonies are washed with PBS and fixed in 0.5% crystal violet (Sigma-Aldrich Ref. V5265), 6% glutaraldehide (Sigma-Aldrich Ref. G5882) for 30 minutes. After extensive washing, colonies are dissolved in 2 ml of 10% glacial acetic acid (Sigma-Aldrich Ref. 537020) and absorbance at 590 nm is measured in the Victor 1420 Multilabel Counter (Perkin Elmer). The absorbance in cells treated with DMSO is taken as hundred percent of proliferation. The percentage of proliferation is finally plotted against concentration for each compound and EC50s for colony formation inhibition are calculated using ActivityBase from IDBS.

[2] = system: SW620 cells; test: Cell cycle assay (propidium iodine, flow cytometry); assay type: cell-based, human; details: SW620, 24 h, increasing concentrations
Procedure: Compounds can be screened for their ability to affect the cell cycle using a propidium iodine assay and analysis by flow cytometry. SW620 are plated at 500000 cells per well in 6-well plates (Solmeglas 13118) in RPMI media (Sigma-Aldrich R6504) supplemented with 10% foetal bovine serum (Sigma-Aldrich F7524), Penicillin/Streptomycin solution diluted 1:100 (Gibco 15070-063), and fungizone (Gibco, 15290-018), and allowed to adhere overnight at 37° C. in 5% CO2. Cells are then treated 24 h hours with compounds at final concentration of 5, 2.5, 1 and 0.5 μM. Cells are collected by trypsinization and centrifugation at 1250 rpm and washed with PBS (Sigma Ref. D8537). Cells are fixated with 70% cold ethanol (Merck Ref 100983)) and kept at 4° C. at least for 12 hours. After centrifugation, cells are washed with PBS and DNA is stained with a solution of 0.2 mg/mL RNAase (Quiagen Ref 1007885) and 0.02 mg/mL propidium iodine (Sigma Ref P4864). After 30 minutes incubation at room temperature in the dark cells are analyzed by FACSCalibur™ (BD biosciences) and Flowjo software.

[3] = system: panel of 468 kinases; test: KINOMEscan kinase panel selectivity score; assay type: binding
From the text: Compounds of the invention may have the advantage that they are effective inhibitors of protein kinases (e.g. CDK8 and/or haspin). […] For instance, the compounds of the invention may be selective inhibitors of certain protein or lipid kinases. […] Compounds that are selective inhibitors may be identified by screening in a 453-468 kinases panel (KINOMEscan™ from DiscoveRx). For example, selective inhibitors may show a selectivity score of S(20)<0.05.
Selectivity Score (or S-score) is a quantitative measure of a compound's selectivity. It is calculated by dividing the number of kinases to which a compound binds by the total number of distinct kinases tested (i.e. S=Number of hits/Number of assays).

[4] = system: SW620; test: Combination assay, SW620; assay type: cell-based, human
Summary of the method: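 Cells treated with example compounds combined with chemotherapeutic agents, proliferation read by CellTiter-Glo. Combination index from the Chou–Talalay method (CI <0.8 synergy, 0.8–1.2 additivity, >1.2 antagonism); EC50 of the combination also derived alongside single-agent EC50s.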

[5] = system: HCT116; test: Combination assay, HCT116; assay type: cell-based
Procedure: (§1) The combination index (CI) of combinations of certain example compounds and various chemotherapeutic agents in the CellTitetI-Glo® in vitro cell proliferation assays may be tested. A combination index score is calculated by the Chou and Talalay method (CalcuSyn software, Biosoft). The strength of synergy is scored using the ranking system Chou and Talalay: CI less than 0.8 indicates synergy, CI between 0.8 and 1.2 indicates additivity and CI greater than 1.2 indicates antagonism.
The EC50 values of representative combinations are also calculated. The individually measured EC50 values of the chemotherapeutic agent and the example compounds are compared to the EC50 value of the combination. The cell lines are characterised by tumor type. Combination assays are performed as described in: “Pim 1 kinase inhibitor ETP-45299 suppresses cellular proliferation and synergizes with PI3K inhibition”. Blanco-Aparicio, Carmen; Collazo, Ana Maria Garcia; Oyarzabal, Julen; Leal, Juan F.; Albaran, Maria Isabel; Lima, Francisco Ramos; Pequeno, Belen; Ajenjo, Nuria; Becerra, Mercedes; Alfonso, Patricia; Reymundo, Maria Isabel; Palacios, Irene; Mateos, Genoveva; Quinones, Helena; Corrionero, Ana; Carnero, Amancio; Pevarello, Paolo; Lopez, Ana Rodriguez; Fominaya, Jesus; Pastor, Joaquin; Bischoff, James R. Cancer Letters (Shannon, Ireland) 2011, 300(2), 145-153

[6] = system: DU145; test: Combination assay, DU145; assay type: cell-based
Procedure: as §1
The EC50 values of representative combinations are also calculated. The individually measured EC50 values of the chemotherapeutic agent and the example compounds are compared to the EC50 value of the combination. The cell lines are characterised by tumor type. […] Blanco-Aparicio, Carmen; Collazo, Ana Maria Garcia; Oyarzabal, Julen; Leal, Juan F.; Albaran, Maria Isabel; Lima, Francisco Ramos; Pequeno, Belen; Ajenjo, Nuria; Becerra, Mercedes; Alfonso, Patricia; Reymundo, Maria Isabel; Palacios, Irene; Mateos, Genoveva; Quinones, Helena; Corrionero, Ana; Carnero, Amancio; Pevarello, Paolo; Lopez, Ana Rodriguez; Fominaya, Jesus; Pastor, Joaquin; Bischoff, James R. Cancer Letters (Shannon, Ireland) 2011, 300(2), 145-153

[7] = SW620, combination with ABT-751
[8] = SW620, combination with Alisertib
[9] = SW620, combination with Crizotinib
[10] = SW620, combination with Elesclomol
[11] = SW620, combination with Oxaliplatin
[12] = HCT116, combination with Alisertib
[13] = HCT116, combination with Crizotinib
[14] = DU145, combination with Alisertib
[15] = DU145, combination with Crizotinib

EC50 ([1]; Homo sapiens, SW-620, 264 h, read-out: mean EC50, colony forming assay): 0.051 ± 0.069 µM
Selectivity score S(20) [3]: 0.038
GI50 ([4]; Homo sapiens, SW-620, SW620, example compound alone, read-out: CDK8 inh GI50): 4 µM
GI50 ([5]; Homo sapiens, HCT-116, HCT116, example compound alone, read-out: CDK8 inh GI50): 5 µM
GI50 ([6]; Homo sapiens, DU-145, DU145, example compound alone, read-out: CDK8 inh GI50): 5 µM
SMILES: CCn1c(C(N)=O)cc2c1-c1ccncc1OC2(C)C [Example 43]
effect in colony forming assay [1]: dose-dependent effect
effect on cell cycle [2]: induced G2M arrest and apoptosis
Combination index (CI) [4, 7]: 0.18
Synergy [4, 7]: +++ (0.1 < CI < 0.3 (+++))
Combination index (CI) [4, 8]: 0.52
Synergy [4, 8]: ++ (0.3 < CI < 0.7 (++))
Combination index (CI) [4, 9]: 0.65
Synergy [4, 9]: ++ (0.3 < CI < 0.7 (++))
Combination index (CI) [4, 10]: 0.05
Synergy [4, 10]: ++++ (CI < 0.1 (++++))
Combination index (CI) [4, 11]: 0.53
Synergy [4, 11]: ++ (0.3 < CI < 0.7 (++))
Combination index (CI) ([4]; SW620, combination with Taxol): 0.28
Synergy ([4]; SW620, combination with Taxol): +++ (0.1 < CI < 0.3 (+++))
Combination index (CI) [5, 12]: 0.64
Synergy [5, 12]: ++ (0.3 < CI < 0.7 (++))
Combination index (CI) [5, 13]: 0.58
Synergy [5, 13]: ++ (0.3 < CI < 0.7 (++))
Combination index (CI) ([5]; HCT116, combination with Taxol): 0.63
Synergy ([5]; HCT116, combination with Taxol): ++ (0.3 < CI < 0.7 (++))
Combination index (CI) [6, 14]: 0.65
Synergy [6, 14]: ++ (0.3 < CI < 0.7 (++))
Combination index (CI) [6, 15]: 0.44
Synergy [6, 15]: ++ (0.3 < CI < 0.7 (++))
Combination index (CI) ([6]; DU145, combination with Taxol): 0.21
Synergy ([6]; DU145, combination with Taxol): +++ (0.1 < CI < 0.3 (+++))
